Measurements from patent US5763413A, “Lewis-associated compound, process for producing the same, and anti-inflammatory” (MECT Corporation, priority 1993, dated 1998).

Legend:
[1] = test system: adhesion of HL-60 cells to HUVEC monolayers (ELAM-1); test: Effect on the adhesion of HL-60 cells to HUVEC monolayers mediated by an adhesion molecule; type: cell-based, human; settings: 10 μg/ml final, in lecithin/cholesterol liposome, IL-1β-stimulated HUVEC
Description: (Effect on the Adhesion of Cultured Cells Mediated by a Adhesion Molecule)
(2) Experimental methods and materials
HUVECs (Human umbilical vein endothelial cells: KURABO) were suspended in E-GM UV medium at the concentration of 5×10^3 cells/ml, 100-μl each aliquot thereof was distributed into a 96-well microplate and incubated in a 5% CO2 containing air at 37° C. with the medium being replaced fresh 24 h later. The culture was continued for another 5 days, and the following experiment was performed after the confluent growth of the cells was confirmed.
In order to express ELAM-1 on HUVEC monolayers, IL-1β (IL-1β, Human, Recombinant: Genzym) was added to said culture (final concentration, 10 units/ml) and incubated for 4 h, then the test compound (final concentration, 10 μg/ml) containing liposome prepared with lecithin and cholesterol was added and further incubated or 1 h. Then human promyelocytic leukemia cell line […] which had been cultured was added to said culture at the final concentration of 5×10^5 cells/ml and incubated for 15 min. After washing said culture with the culture medium 3 times to remove the non-adhering HL-60 cells, said culture was gently stirred overnight to strip HL-60 cells adhering to HUVEC monolayers and count. Percent inhibition of adhesion (%) was calculated from the following equation [Margaret, J. et al., Proc. Natl. Acad. Sci. USA, 88, 6224 (1991)]. […]

[2] = test system: passive Arthus reaction; test: Anti-inflammatory activity test: passive Arthus reaction (Example of Test 2); type: in vivo, male guinea pigs of the Hartley strain; settings: Table 21; 0.1 mg/kg i.v., 30 min before antigen
Description: Example of Test 2 (Anti-inflammatory Activity Test)
Male guinea pigs of the Hartley strain weighing 200~250 g were used.
(2) Experimental Materials
The anti-ovalbumin rabbit serum (PCA titer=1/80,000) and ovalbumin were used as the antiserum and antigen, respectively.
The passive Arthus reaction was performed according to the method of Katayama et al. [Katayama, S. et al., Arzeim-Forsch., 31, 1196 (1981)]. That is, guinea pigs were sensitized by an intravenous injection of said anti-ovalbumin rabbit serum (2.5 ml/kg). Thirty minutes after the injection, the Arthus reaction was induced by the intradermal injection of an antigen solution (0.05 ml) containing 0.10 mg of ovalbumin to the abdomen shaved the day before. Two hours after the antigen challenge, the area of intradermal bleeding was measured and used as the index representing the grade of inflammatory reaction. Test compounds were intravenously injected 30 min before the antigen injection. Four guinea pigs per each group were used.
The percent inhibi- is expressed as the bleeding area of the challenged site (%) of the animal group injected with each compound relative to that (100%) of the group administered with the physiological saline.

[3] = Simple acute toxicity test (intravenous injection); type: in vivo, male mice of ddY strain; settings: 50 mg/kg, ddY mice; for Mortality: i.v. (tail vein); for mortality (in words): i.v.
Description: Example of Test 1 (Simple Acute Toxicity Test)
The simple acute toxicity test was carried out by an intravenous injection of compounds of the present invention.
Into the tail vein of male mice of ddY strain weighing 18~20 g which have been kept under the conditions at the temperature of 23°±1° C. and in the humidity of 55 ±7% were injected a solution of the compound of the present invention dissolved in the physiological saline containing the desired dose per 20 g body weighing 0.2 ml. Two dosages of which were 50 mg/kg and 500 mg/kg body weight were used.

## CCCCCCCCCCCCCC=CC(O)C(COC1OC(CO)C(OC2OC(CO)C(O)C(OC3OC(CO)C(OC4OC(CO)C(O)C(OS(=O)(=O)[O-])C4OS(=O)(=O)[O-])C(OC4OC(C)C(O)C(O)C4O)C3NC(C)=O)C2O)C(O)C1O)NC(=O)CCCCCCCCCCCCCCCCCCCCCCC.[Na+].[Na+] (centres unmarked) [Compound 77]
[1]
  Adhesion inhibitory activity: 21.0 ± 15.0%
[2]
  Percent inhibition (passive Arthus reaction): 40.4 ± 5.1%
[3]
  Mortality: 0/3
  mortality (in words): no mortality was observed

## CCCCCCCCCCCCCC=CC(O)C(COC1OC(CO)C(OC2OC(CO)C(O)C(OC3OC(CO)C(OC4OC(CO)C(O)C(OS(=O)(=O)[O-])C4O)C(OC4OC(C)C(O)C(O)C4O)C3NC(C)=O)C2O)C(O)C1O)NC(=O)CCCCCCCCCCCCCCCCCCCCCCC.[Na+] (centres unmarked) [Compound 78]
[1]
  Adhesion inhibitory activity: 20.7 ± 3.7%
[2]
  Percent inhibition (passive Arthus reaction): 32.5 ± 7.3%
[3]
  Mortality: 0/3
  mortality (in words): no mortality was observed
